One molecule from paper PMC8400311, “Novel Anti-Melanogenic Compounds, (Z)-5-(Substituted Benzylidene)-4-thioxothiazolidin-2-one Derivatives: In Vitro and In Silico Insights” (Molecules, 2021) can be followed below.

In general, IC50 refers to the midpoint of a concentration-inhibition curve.

Data set [1] deals with mushroom tyrosinase. Kind of data set: Mushroom tyrosinase inhibition assay. It counts as biochemical. As to conditions: L-tyrosine as substrate; mean of 3 experiments; read-out: IC50 against mushroom tyrosinase. On the procedure:
The absorbances of dopachrome produced in each well during incubation was measured at 450 nm using a microplate reader (VersaMax™, Molecular Devices, Sunnyvale, CA, USA). […] All experiments were independently conducted 3 times. To calculate the % inhibition of tyrosinase activity, the following formula was used: % inhibition = […], where A means the optical density of the test samples and B means the optical density of the non-treated control. To calculate the concentration necessary for 50% inhibition of enzyme activity (IC50), the % tyrosinase inhibition of each compound was obtained at 3 or more different concentrations. IC50 values were calculated by constructing a linear regression curve showing the concentration of the (Z)-BTTZ compounds on the x-axis and percentage inhibition on the y-axis. To obtain a negative control dimethyl sulfoxide (DMSO) was added instead of the (Z)-BTTZ compounds.

The subject of data set [2] is mushroom tyrosinase. In words: Kinetic study of mushroom tyrosinase inhibition (Lineweaver–Burk plots). To be noted: L-tyrosine 0.5–8.0 mM. It counts as biochemical. On the procedure: To investigate the modes of action of compounds 2b and 2f, a kinetic study was performed using mushroom tyrosinase and different concentrations of L-tyrosine as a substrate in the presence of 2b or 2f. As depicted in Figure 4, inhibitory mechanisms were determined using Lineweaver–Burk plot analysis. The Lineweaver–Burk plot patterns of 2b and 2f were similar. The plots obtained at different concentrations of 2b and 2f merged at single points on the y-axis. Regardless of the concentration, the Vmax values of 2b and 2f were independent of concentration, whereas their KM values increased concentration-dependently.
Compounds 2b or 2f (10 µL, final concentrations: 0, 0.05, 0.1, or 0.2 µM for 2b and 0, 2, 4, or 8 µM for 2f) and mushroom tyrosinase solution (20 µL, 150 units) were added to the wells of a 96-well plate containing aqueous solutions (170 µL) containing L-tyrosine at 0.5, 1.0, 2.0, 4.0, or 8.0 mM (final concentrations), distilled water, and potassium phosphate buffer (final concentration: 14.7 mM, pH 6.5), in the ratio 10:9:10. Initial rates of dopachrome formation in reaction mixtures were calculated by measuring increases in absorbances at 492 nm (ΔOD492/min) using a microplate reader (VersaMax^TM, Molecular Devices, Sunnyvale, CA, USA). […] Modes of tyrosinase inhibition were determined using points of convergence. […]

Data set [3] deals with B16F10 melanoma cells. In words: Cell viability, EZ-Cytox assay. The data set is classed as cell-based, murine. As to conditions: concentrations ≤25 µM; 24 and 48 h for 2b and 2f, respectively. On the procedure: Before examining the inhibitory effects of compounds 2b and 2f on tyrosinase and melanin biosynthesis, we investigated their cytotoxic effects using murine B16F10 melanoma cells. The cells were treated with different concentrations of 2b or 2f (0, 1, 2.5, 5, 10, or 25 µM) for 24 and 48 h (Figure 7), respectively, and the cell viabilities were assessed using the EZ-Cytox assay.
Cell viability assays of compounds 2b and 2f were performed using B16F10 melanoma cells and the EZ-Cytox assay (EZ-3000, DoGenBio, Seoul, Korea), as previously described. Briefly, cells were seeded at a density of 1 × 10^4 cells/well in a 96-well plate for 24 h, and then were exposed to different concentrations (0, 1, 2.5, 5, 10, or 25 µM) of 2b or 2f and incubated at 37 °C for 24 and 48 h, respectively. EZ-Cytox solution (10 µL) was then added to each well and cells were incubated at 37 °C for 2 h. Absorbances were measured at 450 nm using a microplate reader (VersaMax^TM, Molecular Devices, Sunnyvale, CA, USA). Each assay was performed in triplicate.
Figure 7 The cytotoxic effects of compounds 2b (a) and 2f (b) on B16F10 melanoma cells at concentrations of 1, 2.5, 5, 10, or 25 µM. Cell viabilities were determined using the EZ-Cytox assay and are expressed as percentages versus non-treated controls. Bars present standard errors.

The subject of data set [4] is B16F10 melanoma cells. Kind of data set: Melanin content assay in α-MSH-stimulated cells. It counts as cell-based, murine. To be noted: α-MSH 1.0 µM; for reduction in melanin content: 48 h; for melanin level versus non-treated controls: 48 h (α-MSH alone 3.51-fold). As to the method:
Melanin content assays were used to evaluate the inhibitory effects of compounds 2b and 2f on α-MSH-stimulated melanogenesis. […] The inhibitory activities on α-MSH-stimulated melanogenesis were determined by measuring melanin optical densities. The anti-melanogenesis activities of compounds 2b and 2f were assessed using a standard melanin content assay with minor modifications. Briefly, B16F10 cells were seeded at a density of 5 × 10^4/well in a 24-well plate and allowed to adhere to wells in a DMEM solution containing penicillin/streptomycin (100 IU/100 µg/mL) and 10% heat-inactivated FBS in a standard humidified 5% CO2 atmosphere at 37 °C. […] Cells were then rinsed twice with PBS and lysed in 200 µL of 1N NaOH containing 10% dimethyl sulfoxide (DMSO) for 1 h at 60 °C. Lysates were transferred to the wells of a 96-well plate, and melanin absorbances were measured at 405 nm using a microplate reader (VersaMax^TM, Molecular Devices, Sunnyvale, CA, USA). All experiments were conducted three times in triplicate. […] Bars represent standard errors.

For data set [5], the system named is cellular tyrosinase in B16F10 melanoma cells. Kind of data set: Cellular tyrosinase activity assay (L-DOPA oxidation) in α-MSH-stimulated cells. The data set is classed as cell-based, murine. To be noted: α-MSH 1.0 µM; for reduction in cellular tyrosinase activity: 48 h; for cellular tyrosinase activity versus non-treated cells: 48 h (α-MSH alone 2.84-fold). On the procedure:
The inhibitory activities of compounds 2b and 2f against cellular tyrosinase were assessed using α-MSH-stimulated melanoma cells. […] The inhibitory effects on tyrosinase activity were evaluated by measuring optical densities.
Tyrosinase activities were assessed by determining the L-DOPA oxidation rate, as described previously with minor modifications. […] Cells were then rinsed twice with PBS, exposed to 100 µL of lysis buffer (90 µL of 50 mM phosphate buffer pH 6.8; 5 µL of 2 mM PMSF; 5 µL of 20% Triton), and frozen at −80 °C for 30 min. After defrosting, lysates were centrifuged at 12,000 g for 30 min at 4 °C, and supernatants (80 µL) were mixed with 10 mM L-DOPA (20 µL) in a 96-well plate. Absorbances were measured at 490 nm at 37 °C every 10 min for 1 h using a microplate reader (VersaMax^TM, Molecular Devices, Sunnyvale, CA, USA). All experiments were carried out three times in triplicate.
Bars represent standard errors.

Regarding `COc1ccc(/C=C2\SC(=O)NC2=S)cc1O` [Compound 2f, (Z)-5-(3-Hydroxy-4-methoxybenzylidene)-4-thioxothiazolidin-2-one], the concentration for half-maximal inhibition (IC50) on mushroom tyrosinase [1] turned out to be 15.2 ± 1.68 µM. Besides, the “mode of mushroom tyrosinase inhibition” value in the data set on mushroom tyrosinase [2] was “competitive”. Also, in the data set on B16F10 melanoma cells [3], the “cytotoxic effect on B16F10 cells” value is “Neither 2b nor 2f exhibited any significant cytotoxic effect”. Besides, the “reduction in melanin content” value in the data set on B16F10 melanoma cells [4] (5 µM compound) is on record as 14%; with B16F10 melanoma cells [4] (10 µM compound) it was 46%; with B16F10 melanoma cells [4] (25 µM compound), 60%. Further, the results for the “melanin level versus non-treated controls” value with B16F10 melanoma cells [4] (5 µM compound), with B16F10 melanoma cells [4] (10 µM compound) and with B16F10 melanoma cells [4] (25 µM compound) were 3.03 fold, 1.88 fold and 1.42 fold, respectively. In addition, the “reduction in cellular tyrosinase activity” value in data set [5] (5 µM compound) was 23%; in data set [5] (10 µM compound), 46%; in data set [5] (25 µM compound), 59%. The figures for the “cellular tyrosinase activity versus non-treated cells” value in data set [5] (5 µM compound), in data set [5] (10 µM compound) and in data set [5] (25 µM compound) were 2.20 fold, 1.54 fold and 1.18 fold, respectively.
